Where “and” joins values, the source holds several entries; their conditions need not be identical. Equal entries are not always repeated.
Tests used:
RAW 264.7 cells = type: cell-based, murine; conditions: for Inhibition of LPS-induced RNI-IC50: LPS-induced (2.5 ng/ml LPS in FIG. 6B)
Method: From the sequence of the CAP18 cDNA, it was apparent that the putative N-terminal peptide of CAP18 was in fact an internal fragment of the CAP18 protein. We therefore tried to reconfirm the original protein sequence. Neutrophil-derived heparin bound cationic proteins were prepared as described above and applied to a C18 reverse phase HPLC (FIG. 1). We sequenced the major peaks. Peaks at fractions 14.5 and 15.2 correspond to defensins MCP1 and MCP2 (Territo et al. (1989) J. Clin. Invest. 84:2017-2019), respectively. Fraction 25.8 is macrophage related protein 14 (MRP14) (Odink et al. (1987) Nature 330:80-82). The fraction at 20.3 minutes corresponds to a fragment of CAP18 of approximately 4-5 kD. […] The murine macrophage cell line RAW 264.7 (obtained from ATCC) and thioglycolate-elicited murine peritoneal exudate cells are used to produce RNI. Cells are cultured at 1×10^6 /ml. in RPMI-1640 +2.5% FCS in 24 well plates in the presence or absence of different concentrations of LPS or murine rlFNγ. After 24 hr. incubation at 37° C. the cell free supernatant is collected and tested for the presence of RNI. Accumulation of nitrite in the medium is measured by a colorimetric assay based on the Griess reaction (Green et al. (1982) Anal. Biochem. 126:11) using sodium nitrite as standards. Sample (50 μl) is mixed with 50 μl of Griess reagent (1% sulfanilamide, 0.1% naphthalene diamine dihydrochloride, 2.5% H3 PO4) and after 10 min. at room temperature absorbance is read at 570 nm.

[1] = tested on: Salmonella minnesota ReLPS sensitized sheep erythrocytes; test: LPS hemagglutination assay (MAC); type: binding
Method: For hemagglutination assays, erythrocytes were sensitized with LPS as follows. One ml of 1% erythrocyte suspension (human 0 type, C3H/HeN mouse or sheep) was mixed with 0.2 ml of LPS solution and incubated at 37° C. for 30 min, followed by washing with phosphate buffered saline (PBS), and then the concentration of suspension was adjusted to 1.0%. In the case of S-LPS, the solution was heated at 100° C. for 1 hour before sensitization of erythrocytes. […] Activity of CAP was expressed as a minimum agglutinating concentration (MAC) of CAP. According to the method of Kirikae et al. (1986) Microbiol. Immunol. 30:269-274, 50 μl of 2-fold serial dilution of Re-LPS was added to 50 μl of 1.0% rabbit erythrocyte suspension, and incubated at 37° C. for 3, hour. Minimum agglutinating concentration of Re-LPS was expressed as 1 HA unit.

[2] = tested on: thioglycolate-stimulated murine peritoneal macrophages; test: LPS-induced tissue factor generation by macrophages; type: cell-based; conditions: peptide 1 μg/ml; 6 hr; FIG. 12
Method: […] Cells were cultured for 6 hours prior to assay of tissue factor by clotting assay.
[…] Production of tissue factor after 6 hr. was measured by clotting assay. […] In the absence of LPS no tissue factor is synthesized by these cells.

Salmonella minnesota Re = test: Antibacterial CFU assay; conditions: FIG. 6C
Salmonella typhimurium = test: Antibacterial CFU assay; conditions: for anti-bacterial activity (CFU), words: FIG. 6D; for effect on CFU at high concentrations alone and in various combinations: FIG. 6F
cells = test: Effect of CAP-37 on LPS-induced tissue factor generation; type: cell-based; conditions: for Tissue factor, figure in parentheses (relative to control = 1.0) / Tissue Factor / Activity: CAP-37 15 HA; for Activity: LPS alone = 100
Method: Table 6 presents a comparison of the effect of RNIP, CAP18, and defensins HP-1 and HP-2 (Territo et al. (1989) J. Clin. Invest. 84:2017-2019) on LPS-induced tissue factor generation. Tissue factor assays were performed as follows. Mouse peritoneal cells were elicted with an intraperitoneal injection of thioglycolate medium and harvested 5-days later by irrigation with pyrogen-free saline. The cells were washed with RPMI 1640 medium, counted and resuspended at a concentration of 1.5-2.0×10^6 /ml in serum-free RPMI medium containing glutamine (0.29 mg/ml), penicillin (50 units/ml) and streptomycin (50/ml). Adherent cells were prepared by incubating 10 ml of a cell suspension (in RPMI 1640 media in sterile culture bottle (Nunclon, 50 ml, Inter Med) for 60 min. at 37° C. in a 5% CO2 atmosphere. The plastic adherent cells were recovered by scraping of the bottle with a sterile rubber policeman. The adherent cells were then washed twice with RPMI media, resuspended in serum-free medium (1×10^6 /ml) in culture tube (Nunc cryotube, Inter Med), and stimulated with graded doses of LPS for 6 hr. at 37° C. in a 5% CO2. The cell suspension was centrifuged and cell pellet was frozen at -80° C. until clotting assays were run.
Veronal buffered saline (VBS) was added to the cell pellet, lysed by 3 cycles of freeze/thaw and sonicated for 10 sec with a hand-held sonicator microbe (Handy Sonic, model UR-20P, Tomy Seiko LTD, Tokyo). Tissue factor activity was tested in modified unactivated partial thromboplastin time (7). One tenth ml of cell lysate (1×10^6 /ml) was preincubated with mouse plasma at 37° C. for 3 min. Then 0.1 ml of 25 mM-CaCl2 which contains phospholipid was added to the mixture and clotting time was measured using a fibrometer (Bio Quest Division, Becton Dickinson, Cokeysville, USA). A standard curve obtained from serial two-fold dilutions of rabbit brain thromboplastic (Simplastin, Ono Pharmaceutical Co.) was used to transpose tissue factor activity into arbitrary tissue factor units (1 μg/ml) suspension of rabbit brain was assigned a value of 1,000 units).
.dagger. LPS was incubated with CAP37 at 37° C. for 2 hours, and
the mixture was added to cells, then cultured for 6 hours.

purified human factor Xa = purified human factor Xa (human, UniProt P00742); test: cell-based or functional assay
purified human factor X [3] = target: T1, purified human factor X (human, UniProt P00742); test: cell-based or functional assay
purified human factor X [4] = target: T1, purified human factor X; test: cell-based or functional assay; remark: listed apart in the source

50-2: synthetic rabbit RNIP-derived fragment, amino acids 147-171 of SEQ ID NO:4 (same range printed as 50-1) (IKEKLKKIGQKIQGLLPKLAPRTDY)
Inhibition of LPS-induced RNI-IC50 (RAW 264.7 cells): 0.3 µg/mL | Hemagglutination MAC (minimum agglutinating concentration) [1]: > 125 µg/mL | inhibition of LPS induced tissue factor [2]: fail to inhibit | anti-bacterial activity (CFU), words (Salmonella minnesota Re): not active | anti-bacterial activity (CFU), words (Salmonella typhimurium): not active | effect on CFU at high concentrations alone and in various combinations (Salmonella typhimurium): No effect

54-2: synthetic rabbit RNIP-derived fragment, amino acids 139-171 of SEQ ID NO:4 (RLRKFRNKIKEKLKKIGQKIQGLLPKLAPRTDY)
Inhibition of LPS-induced RNI-IC50 (RAW 264.7 cells): > 2 µg/mL | Hemagglutination MAC (minimum agglutinating concentration) [1]: > 125 µg/mL

50-1: synthetic rabbit RNIP-derived fragment, amino acids 147-171 of SEQ ID NO:4 (IKEKLKKIGQKIQGLLPKLAPRTDY)
Inhibition of LPS-induced RNI-IC50 (RAW 264.7 cells): 0.3 µg/mL | Hemagglutination MAC (minimum agglutinating concentration) [1]: > 125 µg/mL

52-1: synthetic rabbit RNIP-derived fragment, amino acids 143-169 of SEQ ID NO:4 (FRNKIKEKLKKIGQKIQGLLPKLAPRT)
Inhibition of LPS-induced RNI-IC50 (RAW 264.7 cells): > 2 µg/mL | Hemagglutination MAC (minimum agglutinating concentration) [1]: > 125 µg/mL

polymyxin B [reference compound]
inhibition of LPS-induced RNI production (RAW 264.7 cells; LPS 5ng/ml, FIG. 4): inhibition

54-1: synthetic rabbit RNIP-derived fragment, amino acids 139-170 of SEQ ID NO:4 (RLRKFRNKIKEKLKKIGQKIQGLLPKLAPRTD)
Inhibition of LPS-induced RNI-IC50 (RAW 264.7 cells): > 2 µg/mL | Hemagglutination MAC (minimum agglutinating concentration) [1]: > 125 µg/mL

52-2: synthetic rabbit RNIP-derived fragment, amino acids 143-170 of SEQ ID NO:4 (FRNKIKEKLKKIGQKIQGLLPKLAPRTD)
Inhibition of LPS-induced RNI-IC50 (RAW 264.7 cells): > 2 µg/mL | Hemagglutination MAC (minimum agglutinating concentration) [1]: > 125 µg/mL

52-3: synthetic rabbit RNIP-derived fragment, amino acids 132-171 of SEQ ID NO:4 as printed (EPTGLRKRLRKFRNKIKEKLKKIGQKIQGLLPKLAPRTDY)
Inhibition of LPS-induced RNI-IC50 (RAW 264.7 cells): > 2 µg/mL | Hemagglutination MAC (minimum agglutinating concentration) [1]: > 125 µg/mL

34-1: synthetic rabbit RNIP-derived fragment, amino acids 140-166 of SEQ ID NO:4 (LRKFRNKIKEKLKKIGQKIQGLLPKLA)
Inhibition of LPS-induced RNI-IC50 (RAW 264.7 cells): > 2 µg/mL | Hemagglutination MAC (minimum agglutinating concentration) [1]: > 125 µg/mL

32-1: synthetic rabbit RNIP-derived fragment, amino acids 135-143 of SEQ ID NO:4 (GLRKRLRKF)
Inhibition of LPS-induced RNI-IC50 (RAW 264.7 cells): > 2 µg/mL | Hemagglutination MAC (minimum agglutinating concentration) [1]: > 125 µg/mL | inhibition of LPS induced tissue factor [2]: fail to inhibit | anti-bacterial activity (CFU), words (Salmonella minnesota Re): not active | anti-bacterial activity (CFU), words (Salmonella typhimurium): not active | effect on CFU at high concentrations alone and in various combinations (Salmonella typhimurium): No effect | effect of pretreatment with peptide 32-1 on bacterial killing by peptide 197 (Salmonella typhimurium; FIG. 6G): no inhibition or augmentation

187: synthetic rabbit RNIP-derived fragment, amino acids 151-171 of SEQ ID NO:4 (LKKIGQKIQGLLPKLAPRTDY) [compound 187]
activity in hemagglutination and inhibition of LPS-induced RNI (RAW 264.7 cells): inactive | Inhibition of LPS-induced RNI-IC50 (RAW 264.7 cells): > 10 µg/mL | Hemagglutination MAC (minimum agglutinating concentration) [1]: > 125 µg/mL

21-1: synthetic rabbit RNIP-derived fragment, amino acids 135-151 of SEQ ID NO:4 (GLRKRLRKFRNKIKEKL)
Inhibition of LPS-induced RNI-IC50 (RAW 264.7 cells): > 2 µg/mL | Hemagglutination MAC (minimum agglutinating concentration) [1]: > 125 µg/mL

B1: CAP-37: another cationic peptide CAP37 (azurocidin) (Morgan et al. 1991) (protein, UniProt P20160 27-248, looked up)
Azurocidin: IVGGRKARPRQFPFLASIQNQGRHFCGGALIHARFVMTAASCFQSQNPGVSTVVLGAYDLRRRERQSRQTFSISSMSENGYDPQQNLNDLMLLQLDREANLTSSVTILPLPLQNATVEAGTRCQVAGWGSQRSGGRLSRFPRFVNVTVTPEDQCRPNNVCTGVLTRRGGICNGDGGTPLVCEGLAHGVASFSLGPCGRGPDFFTRVALFRDWIDGVLNNPGP
inhibition of tissue factor generation (cells): unable to inhibit | Tissue factor, figure in parentheses (relative to control = 1.0) (cells; LPS 0.1 μg/ml): 2.3 | Tissue Factor (cells; LPS 0.1 μg/ml, LPS alone 412 ± 30): 383 ± 307 units/1 × 10^5 cells | Activity (cells; LPS 0.1 μg/ml): 93.0 | Tissue factor, figure in parentheses (relative to control = 1.0) (cells; LPS 1.0 μg/ml): 3.9 | Tissue Factor (cells; LPS 1.0 μg/ml, LPS alone 692 ± 27): 648 ± 343 units/1 × 10^5 cells | Activity (cells; LPS 1.0 μg/ml): 93.6 | Tissue factor, figure in parentheses (relative to control = 1.0) (cells; no LPS): 1.1 | Tissue Factor (cells; no LPS, control 168 ± 95): 183 ± 67 units/1 × 10^5 cells

GLRKRLRKFRNKIKEKLKKIGQKIQGLLPKLA [synthetic rabbit RNIP-derived peptide 36-1]
IC50, prothrombin activation by factor Xa (synthetic substrate) (prothrombin (factor II)): < 30 nM | IC50, Xa-induced clotting (purified human factor Xa): 2.2 µg/ml and 0.4 µM | IC50, Russell Viper Venom induced clotting (purified human factor X [3]): 0.9 µg/ml and 0.2 µM | IC50, RVV activation of factor X to Xa (synthetic substrate) (purified human factor X [4]): 10 µg/ml and 1.9 µM | IC50, factor X activation by tissue factor and factor VII (synthetic substrate) (purified human factor X [4]): 100 nM

GLRKRLRKFRNKIKEKLKKIGQKIQGLLPKLAPRTDY
IC50, prothrombin activation by factor Xa (synthetic substrate) (prothrombin (factor II)): 50 nM | IC50, Xa-induced clotting (purified human factor Xa): 2.7 µg/ml and 0.5 µM | IC50, Russell Viper Venom induced clotting (purified human factor X [3]): 0.7 µg/ml and 0.1 µM | IC50, RVV activation of factor X to Xa (synthetic substrate) (purified human factor X [4]): 6.7 µg/ml and 1.1 µM

— US5618675A, “Methods and compositions for detecting lipopolysaccharides using CAP18 fragments” (Panorama Research, Inc., dated 1997)
